From ChEMBL document CHEMBL3763135, “Synthesis and evaluation of thiophene-based guanylhydrazones (iminoguanidines) efficient against panel of voriconazole-resistant fungal isolates” (Bioorg Med Chem, 2016)
The source made the active and inactive calls. The rule behind the calls is not given here.

Experiments:
[1] = Selectivity index, ratio of IC50 for human MRC5 cell to MIC for Candida albicans ATCC 10231
Candida albicans [2] = assay: Induction of cell death in Candida albicans CA5 at MIC measured after 2 hrs by concavaline-FITC/PI/DAPI-staining based fluorescence microscopic analysis relative to DMSO control; format: functional
Candida albicans [3] = assay: Fungistatic activity against Candida albicans CA5 at sub-MIC measured after 12 hrs by time-kill dependence-based spectrophotometric analysis; format: functional, organism-based
Candida albicans [4] = assay: Induction of membrane damage in Candida albicans CA5 at MIC measured after 2 hrs by concavaline-FITC/PI/DAPI-staining based fluorescence microscopic analysis relative to DMSO control; format: functional
Danio rerio [5] = species on record: Danio rerio; assay: Toxicity against zebrafish embryo assessed as growth retardation at 50 ug/ml measured at 96 hrs post fertilization by inverted microscopic analysis; format: organism-based; details: in vivo
[6] = Hemolytic effect in sheep RBC assessed as release of hemoglobin at 10 ug/ml after 1 hr; format: ADME, cell-based, Ovis aries, Erythrocyte; details: sheep red blood cells, read-out: Activity
Danio rerio [7] = species on record: Danio rerio; assay: Toxicity against zebrafish embryo assessed as effect on notochord at 50 ug/ml measured at 96 hrs post fertilization by inverted microscopic analysis; format: organism-based; details: in vivo
Danio rerio [8] = species on record: Danio rerio; assay: Toxicity against zebrafish embryo assessed as effect on eyes at 50 ug/ml measured at 96 hrs post fertilization by inverted microscopic analysis; format: organism-based; details: in vivo
Danio rerio [9] = species on record: Danio rerio; assay: Toxicity against zebrafish embryo assessed as effect on otoliths at 50 ug/ml measured at 96 hrs post fertilization by inverted microscopic analysis; format: organism-based; details: in vivo
Danio rerio [10] = assay: Toxicity against zebrafish embryo assessed as pericardial edema at 50 ug/ml measured at 96 hrs post fertilization by inverted microscopic analysis; format: organism-based; details: in vivo
Danio rerio [11] = species on record: Danio rerio; assay: Toxicity against zebrafish embryo assessed as effect on heart beat at 50 ug/ml measured at 96 hrs post fertilization by inverted microscopic analysis; format: organism-based; details: in vivo
Danio rerio [12] = species on record: Danio rerio; assay: Toxicity against zebrafish embryo assessed as effect on blood circulation at 50 ug/ml measured at 96 hrs post fertilization by inverted microscopic analysis; format: organism-based; details: in vivo
Danio rerio [13] = species on record: Danio rerio; assay: Toxicity against zebrafish embryo assessed as unhatched embryos at 50 ug/ml measured at 96 hrs post fertilization by inverted microscopic analysis; format: organism-based; details: in vivo
Danio rerio [14] = species on record: Danio rerio; assay: Toxicity against zebrafish embryo assessed as head malformation at 50 ug/ml measured at 96 hrs post fertilization by inverted microscopic analysis; format: organism-based; details: in vivo
Danio rerio [15] = species on record: Danio rerio; assay: Toxicity against zebrafish embryo assessed as skeletal deformities at 50 ug/ml measured at 96 hrs post fertilization by inverted microscopic analysis; format: organism-based; details: in vivo

For Cc1ccc(-c2ccc(/C=N/NC(=N)N)s2)cc1.Cl, the “Selectivity Index” value [1] was 2.7 and the Activity (Candida albicans [2]) was “inactive”.
In the case of Cl.Cl.N=C(N)N/N=C/c1ccc(-c2ccc(/C=N/NC(=N)N)s2)cc1, the Activity (Candida albicans [3]) is reported as “Active”, the Activity (Candida albicans [4]) is reported as 20% and the Activity (Danio rerio [5]) is reported as 0%. It also gave a hemolysis at 1 h, 10 ug/ml [6] of 20%, an Activity (Danio rerio [7]) of 0% and an Activity (Danio rerio [8]) of 0%. It also gave an Activity (Danio rerio [9]) of 0%, an Activity (Danio rerio [10]) of 0% and an Activity (Danio rerio [11]) of 0%. It also gave an Activity (Danio rerio [12]) of 0%, an Activity (Danio rerio [13]) of 0% and an Activity (Danio rerio [14]) of 0%. The Activity (Danio rerio [15]) was 0%.
